The values below come from patent US20090087870A1, “HEMATOLOGICAL ASSAY AND KIT” (DSM IP ASSETS B.V., priority 2002, published 2009).

Experiment [1] relates to thrombin formation in plasma samples from healthy volunteers and hemophilia A patients. Put plainly: onset of thrombin formation in the inventive assay compared with the aPTT (onset of clotting by fibrin formation). The class given is biochemical. The settings on record: 250 μmol/l substrate added to aPTT activation (aluminium silicate, phospholipids, CaCl2); 80 plasma samples; FIG. 11. The text has this: FIG. 11 compares the detection of the onset of coagulation by the Fibrin Formation method and by the inventive method. For this experiment 80 plasma samples from healthy volunteers and hemophilia A patients were clotted by the addition of a contact phase activator (aluminium silicate, Sigma, St. Louis, USA), phospholipids (rabbit brain cephalin, Pentapharm, Basle) and CaCl2 (Sigma, St. Louis, USA). This procedure is called “Activated Partial Thromboplastin time” (aPTT). The time from the start of the procedure till clotting is detected is the aPTT. The inventive assay was performed using the identical activation procedure as the aPTT. The difference between the two procedures was the addition of the fast chromogenic substrate • (H-D-CHG-Ala-Arg-pNa.2AcOH, 250 μmol/l, Pentapharm) and the fibrin polymerisation inhibitor H-Gly-Pro-Arg-Pro-OH AcOH (5 mg/ml, Pentapharm) in the inventive assay.

Another experiment deals with thrombin (Homo sapiens, UniProt P00734). The settings on record: thrombin substrate, substrate-thrombin reaction; cited from earlier work.

One may read the Km as the concentration of substrate that gives half-maximal velocity. On to H-D-CHG-Ala-Arg-pNa.2AcOH, for which, in experiment [1], the “effect on onset of thrombin formation” value is on record as “delayed the onset of the thrombin formation”. For the same substance, the Km at thrombin is 15.9 µM.

For H-β-Ala-Gly-Arg-pNA°2AcOH, the Km at thrombin was 2000 µM.
